{"source": "paper PMC7537397", "about": "“Deciphering and predicting CD4^+ T cell immunodominance of influenza virus hemagglutinin” (The Journal of Experimental Medicine, 2020)", "key": {"[1]": {"test_system": "H1-HA–reactive T cell clones from CD4^+ naive T cell compartment", "assay_type": "cell-based, human"}, "[2]": {"test_system": "HLA-DR, HLA-DQ, HLA-DP", "assay": "MHC-II restriction of T cell clones with blocking antibodies", "assay_type": "cell-based, human"}, "[3]": {"test_system": "H1-HA–specific memory CD4^+ T cell clones, donor HD1", "assay": "Functional avidity of memory T cell clones with anti-head or anti-stem EBV-B cell clones as APCs", "assay_type": "cell-based, human", "details": "HLA-DR–restricted clones specific for the peptide"}, "[4]": {"test_system": "H1-HA–reactive T cell clones from CD4^+ memory (Tcm, Tem, or cTfh) compartment, donor HD1", "assay_type": "cell-based, human"}, "[5]": {"molecular_target": "HLA-DRB1*08:01 (Homo sapiens, UniProt P01903+P01911, A100R/A103L/A169T/D86S/F76Y/H45Y/I96F/K41T/L162R/M171V/P40S/Q125H/Q178H/Q39Y/Q99D/R218S/R42G/S66Y/V115G/W38E)", "assay_type": "binding", "details": "pH 7"}, "[6]": {"test_system": "MHC-II molecules", "assay": "MS-based MHC-II peptidomics, H1-HA–pulsed anti-head and anti-stem EBV-B cell clones of donor HD1", "design": "species or system human", "details": "401–420: anti-stem clone; 416–430 and 386–400: both anti-head and anti-stem clones; union of n = 3"}, "[7]": {"test_system": "H1-HA–specific memory CD4^+ T cell clones, donor HD1", "assay_type": "cell-based, human", "details": "for functional avidity for peptide, memory T cell clone specific for the peptide: donor HD1 memory clones M1 (411–430), M2 (396–410), M3 (526–540), M4 (121–140), M5 (186–200), M6 (446–460), autologous monocytes; for functional avidity for peptide, memory T cell clone specific for the peptide / functional avidity for H1-HA protein, memory T cell clone specific for the peptide: from EC50, day 3; for functional avidity for H1-HA protein, memory T cell clone specific for the peptide: donor HD1 memory clones M1, M4, M5, M6; for fold lower functional avidity for H1-HA protein, memory T cell clone specific for the peptide: clones M2 (396–410) and M3 (526–540), had avidity for peptide comparable to clone M1"}, "[8]": {"test_system": "H1-HA–specific naive CD4^+ T cell clones, donor HD1", "assay_type": "cell-based, human", "details": "for fold lower avidity for protein, naive T cell clone specific for the peptide: clones N2 (521–540) and N3 (536–555); for functional avidity for peptide, naive T cell clone specific for the peptide: donor HD1 naive clones N1 (411–430), N2 (521–540), N3 (536–555), autologous monocytes, from EC50, day 3"}, "[9]": {"test_system": "naive and memory CD4^+ T cells", "assay": "T cell library screening and epitope mapping, naive and memory CD4^+ T cells", "assay_type": "cell-based, human", "details": "memory library"}}}
{"sequence": "AGAKSFYKNLIWLVKKGNSY", "values": [{"measurement": "N sister clones (epitope-specific naive clones per TCR Vβ clonotype)", "setting": "[1]", "value": 1}]}
{"sequence": "EDKHNGKLCKLRGVAPLHLG", "values": [{"measurement": "N sister clones (epitope-specific naive clones per TCR Vβ clonotype)", "setting": "[1]", "value": 1}]}
{"sequence": "EGRMNYYWTLVEPGDKITFE", "values": [{"measurement": "MHC-II restriction of T cell clones specific for the peptide", "setting": "[2]", "value": "HLA-DR restricted"}, {"measurement": "activation, proliferation and functional avidity with anti-stem compared with anti-head B cells as APCs", "setting": "[3]", "value": "much lower activation and proliferation"}, {"measurement": "reduction of functional avidity with anti-stem compared with anti-head B cells as APCs", "setting": "[3]", "value": 10, "unit": "fold"}]}
{"sequence": "EKMNTQFTAVGKEFNHLEKR", "values": [{"measurement": "number of different TCR Vβ clonotypes specific for the peptide", "setting": "[4]; 88 distinct clonotypes in total", "value": 16, "unit": "clonotypes"}, {"measurement": "number of sequenced T cell clones specific for the peptide", "setting": "[4]; 274 clones sequenced", "value": 62, "unit": "clones"}, {"measurement": "MHC-II restriction of T cell clones specific for the peptide", "setting": "[2]", "value": "HLA-DR restricted"}, {"measurement": "binding affinity to HLA-DRB1*08:01 relative to subdominant peptides", "setting": "[5]", "value": "comparable to that of subdominant peptides"}, {"measurement": "activation, proliferation and functional avidity with anti-stem compared with anti-head B cells as APCs", "setting": "[3]", "value": "much lower activation and proliferation"}, {"measurement": "reduction of functional avidity with anti-stem compared with anti-head B cells as APCs", "setting": "[3]", "value": 10, "unit": "fold"}, {"measurement": "detection of H1-HA–derived peptides of the region by MHC-II immunopeptidomics, HD1 B cell clones", "setting": "[6]", "value": "did not detect any"}]}
{"sequence": "GFLDIWTYNAELLVL", "values": [{"measurement": "N sister clones (epitope-specific naive clones per TCR Vβ clonotype)", "setting": "[1]", "value": 1}]}
{"sequence": "GFLDIWTYNAELLVLLENER", "values": [{"measurement": "N sister clones (epitope-specific naive clones per TCR Vβ clonotype)", "setting": "[1]", "value": 1}]}
{"sequence": "GKLCKLRGVAPLHLG", "values": [{"measurement": "N sister clones (epitope-specific naive clones per TCR Vβ clonotype)", "setting": "[1]", "value": 1}]}
{"sequence": "HLEKRIENLNKKVDD", "values": [{"measurement": "MHC-II restriction of T cell clones specific for the peptide", "setting": "[2]", "value": "HLA-DR–restricted"}, {"measurement": "activation, proliferation and functional avidity with anti-stem compared with anti-head B cells as APCs", "setting": "[3]", "value": "comparable functional avidity"}, {"measurement": "detection of H1-HA–derived peptides of the region by MHC-II immunopeptidomics, HD1 B cell clones", "setting": "[6]", "value": "detected by MHC-II immunopeptidomics on both anti-head and anti-stem B cell clones"}]}
{"sequence": "KGKEVLVLWGIHHPS", "values": [{"measurement": "MHC-II restriction of T cell clones specific for the peptide", "setting": "[2]", "value": "HLA-DQ"}, {"measurement": "functional avidity for peptide, memory T cell clone specific for the peptide", "setting": "[7]", "value": "functional avidity lower than the median of the distribution"}, {"measurement": "functional avidity for H1-HA protein, memory T cell clone specific for the peptide", "setting": "[7]", "value": "functional avidity lower than the median of the distribution"}]}
{"sequence": "KLESTRIYQILAIYSTVASS", "values": [{"measurement": "fold lower avidity for protein, naive T cell clone specific for the peptide", "setting": "[8]", "value": 100, "unit": "fold"}, {"measurement": "functional avidity for peptide, naive T cell clone specific for the peptide", "setting": "[8]", "value": "high avidity"}]}
{"sequence": "LENERTLDYHDSNVK", "values": [{"measurement": "MHC-II restriction of T cell clones specific for the peptide", "setting": "[2]", "value": "HLA-DQ"}, {"measurement": "functional avidity for peptide, memory T cell clone specific for the peptide", "setting": "[7]", "value": "functional avidity lower than the median of the distribution"}, {"measurement": "functional avidity for H1-HA protein, memory T cell clone specific for the peptide", "setting": "[7]", "value": "functional avidity lower than the median of the distribution"}]}
{"sequence": "QNAIDEITNKVNSVI", "values": [{"measurement": "MHC-II restriction of T cell clones specific for the peptide", "setting": "[2]", "value": "HLA-DR–restricted"}, {"measurement": "activation, proliferation and functional avidity with anti-stem compared with anti-head B cells as APCs", "setting": "[3]", "value": "comparable functional avidity"}, {"measurement": "detection of H1-HA–derived peptides of the region by MHC-II immunopeptidomics, HD1 B cell clones", "setting": "[6]", "value": "detected by MHC-II immunopeptidomics on both anti-head and anti-stem B cell clones"}]}
{"sequence": "RIYQILAIYSTVASS", "values": [{"measurement": "fold lower functional avidity for H1-HA protein, memory T cell clone specific for the peptide", "setting": "[7]", "value": "1,000 fold"}, {"measurement": "functional avidity for peptide, memory T cell clone specific for the peptide", "setting": "[7]", "value": "high functional avidity"}]}
{"sequence": "SRYSKKFKPEIAIRPKVRDQ", "values": [{"measurement": "N sister clones (epitope-specific naive clones per TCR Vβ clonotype)", "setting": "[1]", "value": 1}]}
{"sequence": "TVASSLVLVVSLGAISFWMC", "values": [{"measurement": "N sister clones (epitope-specific naive clones per TCR Vβ clonotype)", "setting": "[1]", "value": 1}, {"measurement": "fold lower avidity for protein, naive T cell clone specific for the peptide", "setting": "[8]", "value": 100, "unit": "fold"}, {"measurement": "functional avidity for peptide, naive T cell clone specific for the peptide", "setting": "[8]", "value": "high avidity"}]}
{"sequence": "VNSVIEKMNTQFTAV", "values": [{"measurement": "percentage of immunodominant T cell clones", "setting": "[9]; donor HD4", "value": 31.1, "unit": "%"}, {"measurement": "fold lower functional avidity for H1-HA protein, memory T cell clone specific for the peptide", "setting": "[7]", "value": "1,000 fold"}, {"measurement": "functional avidity for peptide, memory T cell clone specific for the peptide", "setting": "[7]", "value": "high functional avidity"}]}
{"sequence": "VVPRYAFAMERNAGSGIIIS", "values": [{"measurement": "percentage of immunodominant T cell clones", "setting": "[9]; donor HD3", "value": 24.5, "unit": "%"}]}
